Among the data in patent publication US20190389865A1, “SUBSTITUTED PYRROLO[1,2-a]TRIAZINES AND RELATED COMPOUNDS AND THEIR USE IN THE TREATMENT OF MEDICAL DISORDERS” (Lysosomal Therapeutics Inc., priority 2016, published 2019) are activation and solubility values, retold here.

Converted amounts (≈) assume the structure as drawn.

For orientation: solubility means the concentration that dissolves in the medium under given conditions. Lower therefore signals a poorly soluble substance.

Data set [1] deals with T1, glucocerebrosidase (Gcase) (Homo sapiens, UniProt P04062).
T1 sequence (P04062 40-536): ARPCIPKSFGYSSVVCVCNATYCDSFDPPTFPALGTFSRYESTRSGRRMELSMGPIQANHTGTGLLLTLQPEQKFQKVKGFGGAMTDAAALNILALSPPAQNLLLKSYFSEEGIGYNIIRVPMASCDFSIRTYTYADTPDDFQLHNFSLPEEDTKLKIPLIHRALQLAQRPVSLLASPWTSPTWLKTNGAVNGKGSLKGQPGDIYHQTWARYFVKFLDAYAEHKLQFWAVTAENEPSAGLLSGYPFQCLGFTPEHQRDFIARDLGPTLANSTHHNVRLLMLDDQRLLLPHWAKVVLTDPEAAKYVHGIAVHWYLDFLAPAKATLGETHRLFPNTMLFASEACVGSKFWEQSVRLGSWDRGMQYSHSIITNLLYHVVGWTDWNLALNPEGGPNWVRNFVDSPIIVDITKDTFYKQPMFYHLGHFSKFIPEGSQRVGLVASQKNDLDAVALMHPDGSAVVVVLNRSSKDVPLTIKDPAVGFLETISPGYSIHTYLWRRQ
The experiment in a line: Glucocerebrosidase (Gcase) activation assay, 4-methylumbelliferyl-beta-D-glucopyranoside substrate, fluorescence. In kind it is biochemical. Conditions: 10 nM GCase, 100 nM saposin C, pH 4.7; for activation at 0.1 µM: 0.1 μM test compound, read-out: Percent Gcase Activation, 0.1 μM Test Compound; for activation at 1 µM: 1 μM test compound, read-out: Percent Gcase Activation, 1 μM Test Compound. As for the experimental part: The ability of exemplary compounds to activate glucocerebrosidase (Gcase) was measured.
A 484 μL aliquot of a 1.0 mg/mL solution of phosphatidylserine (PS) (Sigma P7769) in chloroform was evaporated under a stream of nitrogen for 1 hour. The lipid film was dissolved over 4 minutes of vigorous vortexing in 40 mL of 176 mM K2HPO4/50 mM citric acid (pH 4.7) containing 7.5 μL of triton X-100, resulting in a mixed micellar preparation with a composition of 0.32 mM triton and 0.37 mol % PS. 4-Methylumbelliferyl-beta-D-glucopyranoside (ACROS-337025000) was dissolved in the micellar solution to a final concentration of 2 mM for use as the reaction substrate.
Test compounds were diluted to the desired concentrations with dimethylsulfoxide (DMSO) from 10 mM stocks, and 0.41 μL of the DMSO compound mixture was added to 100 μL of micellar solution containing 10 nM GCase and 100 nM saposin C (Enzo ALX-201-262-C050). Pre-incubation was allowed to occur for 30 minutes at room temperature, after which the reaction was initiated by combining 25 μL of substrate solution with 25 μL of compound/GCase/saposin mixture. The reaction proceeded for 15 minutes at room temperature and was stopped by adding 150 μL of 1M glycine, pH 12.5. The endpoint of the reaction was monitored by measuring fluorescence intensity (excitation: 365 nm; emission: 440 nm) on a SpectraMax i3 instrument (Molecular Devices). […]

The nature of data set [2]: Compound solubility in water. In kind it is physicochemical.

Turning to `Cc1nc(C)c2cccc(C(=O)NC3CCCc4ccccc43)c2n1` (stereo not drawn) [2,4-Dimethyl-N-(1,2,3,4-tetrahydronaphthalen-1-yl)quinazoline-8-carboxamide], in data set [1], the activation at 0.1 µM is less than 5% and the activation at 1 µM is 5 to 20%. In addition, the solubility in data set [2] came out at 5 µg/mL (≈ 15.1 µM).

For the molecule `Cc1nc(C)n2ccc(C(=O)NC3(C)CCCc4ccccc43)c2n1` (stereo not drawn) [2,4-Dimethyl-N-(1-methyl-1,2,3,4-tetrahydronaphthalen-1-yl)pyrrolo[1,2-a][1,3,5]triazine-8-carboxamide], in data set [1], the activation at 0.1 µM was 5 to 20% and the activation at 1 µM is greater than 20%. Moreover, the solubility in data set [2] came out at 5.1 µg/mL (≈ 15.3 µM).

For `CCC(NC(=O)c1ccn2c(C)nc(C)nc12)c1ccccc1` (stereo not drawn) [2,4-Dimethyl-N-(1-phenylpropyl)pyrrolo[1,2-a][1,3,5]triazine-8-carboxamide], in data set [1], the activation at 0.1 µM was 5 to 20% and the activation at 1 µM was greater than 20%. Also, the solubility in data set [2] came out at 17.4 µg/mL (≈ 56.4 µM).

`CCC(NC(=O)c1cccc2c(C)nc(C)nc12)c1ccccc1` (stereo not drawn) [2,4-Dimethyl-N-(1-phenylpropyl)quinazoline-8-carboxamide]: in data set [1], the activation at 0.1 µM was less than 5% and the activation at 1 µM was in the range of 5 to 20%. Also, the solubility in data set [2] was determined as 8.7 µg/mL (≈ 27.2 µM).

With `CCCCCO[C@H]1CC[C@H](NC(=O)c2cccc3c(C)nc(C)nc23)CC1` [2,4-Dimethyl-N-((1R,4R)-4-(pentyloxy)cyclohexyl)quinazoline-8-carboxamide], in data set [1], the activation at 0.1 µM was less than 5% and the activation at 1 µM was 5 to 20%. The molecule further came in with a solubility in data set [2] of 7.6 µg/mL (≈ 20.6 µM).

Regarding `CCCCCO[C@H]1CC[C@H](NC(=O)c2ccn3c(C)nc(C)nc23)CC1` [2,4-Dimethyl-N-((1S,4S)-4-(pentyloxy)cyclohexyl) pyrrolo[1,2-a][1,3,5]triazine-8-carboxamide], in data set [1], the activation at 0.1 µM lay in the range of 5 to 20% and the activation at 1 µM was greater than 20%. Also, in data set [2], the concentration in solution (solubility) came to 12.5 µg/mL (≈ 35 µM).

Regarding `Cc1nc(-c2cccc(C(N)=O)c2)nc2c(C(=O)NC(C3CC3)C(F)(F)F)ccn12` (stereo not drawn) [2-(3-Carbamoylphenyl)-N-(1-cyclopropyl-2,2,2-trifluoroethyl)-4-methylpyrrolo[1,2-a][1,3,5]triazine-8-carboxamide], in data set [1], the activation at 0.1 µM is greater than 20% and the activation at 1 µM was greater than 20%. Moreover, in data set [2], the concentration in solution (solubility) came to 1.9 µg/mL (≈ 4.55 µM).

On to `Cc1nc(-c2cccc(C#N)c2)nc2c(C(=O)NC(C3CC3)C(F)(F)F)ccn12` (stereo not drawn) [2-(3-Cyanophenyl)-N-(1-cyclopropyl-2,2,2-trifluoroethyl)-4-methylpyrrolo[1,2-a][1,3,5]triazine-8-carboxamide], for which, in data set [1], the activation at 0.1 µM was greater than 20% and the activation at 1 µM was greater than 20%. Moreover, the concentration in solution in data set [2] (solubility) came to 0.6 µg/mL (≈ 1.5 µM).

In the case of `COc1cc(-c2nc(C)n3ccc(C(=O)NC(C)C(F)(F)F)c3n2)ccc1F` (stereo not drawn) [2-(4-Fluoro-3-methoxyphenyl)-4-methyl-N-(1,1,1-trifluoropropan-2-yl)pyrrolo[1,2-a][1,3,5]triazine-8-carboxamide], in data set [1], the activation at 0.1 µM is greater than 20% and the activation at 1 µM was greater than 20%. In data set [2], this molecule displayed a solubility of 1 µg/mL (≈ 2.52 µM).

In the case of `Cc1nc(C)n2ccc(C(=O)NC(C3CC3)C(F)(F)F)c2n1` (stereo not drawn) [N-(1-Cyclopropyl-2,2,2-trifluoroethyl)-2,4-dimethylpyrrolo[1,2-a][1,3,5]triazine-8-carboxamide], in data set [1], the activation at 0.1 µM lay in the range of 5 to 20% and the activation at 1 µM is greater than 20%. Also, the solubility in data set [2] turned out to be 28.2 µg/mL (≈ 90.3 µM).

Turning to `Cc1nc(-c2cccc(F)c2)nc2c(C(=O)NC(C3CC3)C(F)(F)F)ccn12` (stereo not drawn) [N-(1-Cyclopropyl-2,2,2-trifluoroethyl)-2-(3-fluorophenyl)-4-methylpyrrolo[1,2-a][1,3,5]triazine-8-carboxamide], in data set [1], the activation at 0.1 µM was greater than 20% and the activation at 1 µM is greater than 20%. Further, in data set [2], the concentration in solution (solubility) came to 0.2 µg/mL (≈ 0.51 µM).

Regarding `Cc1nc(-c2ccc(F)cc2)nc2c(C(=O)NC(C3CC3)C(F)(F)F)ccn12` (stereo not drawn) [N-(1-Cyclopropyl-2,2,2-trifluoroethyl)-2-(4-fluorophenyl)-4-methylpyrrolo[1,2-a][1,3,5]triazine-8-carboxamide], in data set [1], the activation at 0.1 µM was greater than 20% and the activation at 1 µM was greater than 20%. Further, in data set [2], the solubility was determined as 0.1 µg/mL (≈ 0.255 µM).

Regarding `Cc1nc(C)n2ccc(C(=O)Nc3ccc4c(c3)CCC4)c2n1` [N-(2,3-Dihydro-1H-inden-5-yl)-2,4-dimethylpyrrolo[1,2-a][1,3,5]triazine-8-carboxamide], in data set [1], the activation at 0.1 µM is less than 5% and the activation at 1 µM is greater than 20%. This molecule also registered a solubility in data set [2] of 1.2 µg/mL (≈ 3.92 µM).

For `Cc1nc(C)c2cccc(C(=O)Nc3ccc4c(c3)CCC4)c2n1` [N-(2,3-Dihydro-1H-inden-5-yl)-2,4-dimethylquinazoline-8-carboxamide], in data set [1], the activation at 0.1 µM was less than 5% and the activation at 1 µM was 5 to 20%. In data set [2], the solubility came out at 0.5 µg/mL (≈ 1.58 µM).

As for `Cc1nc(C)n2ccc(C(=O)NC(C)(C)C3CC3)c2n1` [N-(2-Cyclopropylpropan-2-yl)-2,4-dimethylpyrrolo[2-a][1,3,5]triazine-8-carboxamide], in data set [1], the activation at 0.1 µM is less than 5% and the activation at 1 µM was 5 to 20%. Besides, the concentration in solution in data set [2] (solubility) was 38.4 µg/mL (≈ 141 µM).

`Cc1nc(-c2ccc(F)cc2)nc2c(C(=O)NC(C)(C)C3CC3)ccn12` [N-(2-Cyclopropylpropan-2-yl)-2-(4-fluorophenyl)-4-methylpyrrolo[1,2-a][1,3,5]triazine-8-carboxamide]: in data set [1], the activation at 0.1 µM is less than 5% and the activation at 1 µM is greater than 20%. Also, in data set [2], the solubility stood at 0.5 µg/mL (≈ 1.42 µM).

For the molecule `C#Cc1ccc(NC(=O)c2ccn3c(C)nc(C)nc23)cc1` [N-(4-Ethynylphenyl)-2,4-dimethylpyrrolo[1,2-a][1,3,5]triazine-8-carboxamide], in data set [1], the activation at 0.1 µM is less than 5% and the activation at 1 µM was greater than 20%. For the same molecule, in data set [2], the solubility turned out to be 1.8 µg/mL (≈ 6.2 µM).

On to `C#Cc1ccc(NC(=O)c2cccc3c(C)nc(C)nc23)cc1` [N-(4-Ethynylphenyl)-2,4-dimethylquinazoline-8-carboxamide], for which, in data set [1], the activation at 0.1 µM is less than 5% and the activation at 1 µM was less than 5%. The same molecule showed a solubility in data set [2] of 0.7 µg/mL (≈ 2.32 µM).
